Laboratory results as given in patent EP1849775A1, “Cycloalkane-substituted pyrazoline compounds, their preparation and use as medicaments” (LABORATORIOS DEL DR. ESTEVE, S.A., priority 2006, dated 2007).

Experiments:
cannabinoid receptors = assay: Mouse tetrad model, antagonistic activity against Win 55212-2; assay type: in vivo; settings: Male NMRI mice; substance injected intravenously 5 minutes before intravenous 1.25 mg/kg Win-55,212; tetrad parameter not specified
Description: II. In-vivo bioassay system for determination of cannabinoid activity
Substances with affinity for cannabinoid receptors are known to produce a wide range of pharmacological effects. It is also known that intravenous administration of a substance with affinity for cannabinoid receptors in mice produces analgesia , hypothermia, sedation and catalepsy. Individually, none of these effects can be considered as proof that a tested substance has affinity for cannabinoid-receptors, since all of these effects are common for various classes of centrally active agents. However, substances, which show all of these effects, i.e. substances that are active in this so-called tetrad model are considered to have affinity for the cannabinoid receptors. It has further been shown that cannabinoid receptor antagonists are higly effective in blocking the effects of a cannabinoid agonist in the mouse tetrad model.
The tetrad model is described, for example, in the publication of A. C. Howlett et al, International Union of Pharmacology XXVII. […]
Before testing in the behavioral procedures given below, mice are acclimatized to the experimental setting. Pre-Treatment control values are determined for analgesia hot plate latency (in seconds), rectal temperature, sedation and catalepsy.
In order to determine the agonistic activty of the substance to be tested, the mice are injected intravenously with the substance to be tested or the vehicle alone. 15 minutes after injection, latency in hot plate analgesia is measured. Rectal temperature, sedation and catalepsy are measured 20 minutes after injection.
In order to determine the antagonistic activity the identical procedure is used as for the determination of the agonistic effects, but with the difference that the substance to be evaluated for its antagonistic activity is injectected 5 minutes before the intravenous injection of 1.25 mg/kg Win-55,212 a known cannabinoid-receptor agonist. […]
The degree of analgesia is calculated from the formula: %MPE of Analgesia = (PT-B)/(PC-B) × 100 [formula] […]

CB1-Receptor = molecular target: T1, CB1-Receptor (Homo sapiens, UniProt P21554); assay: In-vitro determination of affinity to CB1 receptor (radioligand binding); settings: Radiologand:[^3H]-CP55940, transfected human CB1 receptors
T1 construct: purchased Receptor Biology, Inc
Description: I. In-vitro determination of affinity to CB1/CB2-Receptors
The in-vitro determination of the affinity of the inventive quaternary ammonium salts of substituted pyrazoline compounds to CB1/CB2-Rezeptors is carried out as described in the publication of Ruth A. Ross, Heather C. Brockie et al., "Agonist-inverse agonist characterization at CB1 and CB2 cannabinoid receptors of L-759633, L759656 and AM630", British Journal of Pharmacology, 126, 665-672, (1999), whereby the transfected human CB1 and CB2 receptors of Receptor Biology, Inc. are used. The radioligand used for both receptors is [3H]-CP55940. The respective parts of the description are hereby incorporated by reference and forms part of the present disclosure.
The affinity of the inventive substituted pyrazoline compounds to CB1/CB2 receptors was determined as described above.

T1 sequence (P21554 whole entry): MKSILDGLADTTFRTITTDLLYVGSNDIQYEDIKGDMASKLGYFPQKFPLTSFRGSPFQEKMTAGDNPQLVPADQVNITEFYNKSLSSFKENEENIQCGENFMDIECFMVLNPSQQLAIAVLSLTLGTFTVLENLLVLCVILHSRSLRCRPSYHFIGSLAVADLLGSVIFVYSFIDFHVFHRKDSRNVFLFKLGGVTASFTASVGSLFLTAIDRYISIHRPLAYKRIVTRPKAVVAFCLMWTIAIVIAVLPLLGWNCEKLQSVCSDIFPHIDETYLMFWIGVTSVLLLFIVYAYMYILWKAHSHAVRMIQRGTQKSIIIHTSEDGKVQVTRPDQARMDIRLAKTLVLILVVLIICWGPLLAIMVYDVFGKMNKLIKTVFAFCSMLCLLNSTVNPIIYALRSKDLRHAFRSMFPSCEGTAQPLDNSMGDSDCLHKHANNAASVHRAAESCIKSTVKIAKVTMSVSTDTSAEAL

Row | IC50 (CB1-Receptor) | SMILES | Antagonistic Effect in (%) (cannabinoid receptors)
1 | 56.2 nM | O=C(NC1CCCCCCC1)C1=NN(c2ccc(Cl)cc2Cl)C(c2ccc(Cl)cc2)C1 (stereo not drawn) [Example 5, 5-(4-chlorophenyl)-N-cyclooctyl-1-(2,4-dichlorophenyl)-4,5-dihydro-1H-pyrazole-3-carboxamide] | 62±5%
2 | 15.8 nM | O=C(NC1CCCCCC1)C1=NN(c2ccc(Cl)cc2Cl)[C@@H](c2ccc(Cl)cc2)C1 [Example 2, (R)-5-(4-chlorophenyl)-N-cycloheptyl-1-(2,4-dichlorophenyl)-4,5-dihydro-1H-pyrazole-3-carboxamide] | 94%
3 | 100 nM | O=C(NC1CCCCCC1)C1=NN(c2ccc(Cl)cc2Cl)C(c2ccc(Cl)cc2)C1 (stereo not drawn) [Example 1, 5-(4-chlorophenyl)-N-cycloheptyl-1-(2,4-dichlorophenyl)-4,5-dihydro-1H-pyrazole-3-carboxamide] | 84%
